# Results as given in paper PMC9331678 (Molecules, 2022).
# Test: 24 h therapeutic monitoring and noncompartmental pharmacokinetics in chronic lymphocytic leukemia patients receiving IBR
# Settings: plasma; for concentration at 2 h: 2 h postdose; for concentration at 4 h: 4 h postdose; for concentration at 23 h: 23 h postdose; for concentration at 24 h: 24 h postdose; for k el / half-life / MRT last / MRT / Cmax / Tmax / AUCPEO AUC %Extrapolation Obs / AUCPEP AUC %Extrapolation Pred / AUMCIFO AUMC Infinity Obs / AUMCIFP AUMC Infinity Pred / AUMCLST AUMC to Last Nonzero Conc / AUMCPEO AUMC %Extrapolation Obs / AUMCPEP AUMC % Extrapolation Pred / TMAX Time of CMAX: steady state
# [1] = human, oral, 420 mg, Conc., subj=1 (420 mg IBR per day)
# [2] = human, oral, 420 mg, Patient 1, 420 mg IBR per day
# [3] = human, oral, 420 mg, Patient 2, 420 mg IBR per day
# [4] = human, oral, 420 mg/day, Conc., subj=2 (420 mg IBR per day)
# Description: In order to provide a proof of concept, IBR and DIB were assayed in the plasma samples of three patients treated with IBR. […] The criteria for inclusion were (1) age of ≥18 years, (2) treatment ongoing with IBR for more than 10 days, and (3) no concurrent administration of medications undergoing CYP3A4 metabolism. The subjects gave their written informed consent. Each participant took either two or three 140 mg Imbruvica capsules, as per the therapeutic provision, in the presence of the recruiting clinician.
# Blood samples were centrifuged at 3000 rpm for 10 min in a Hettich Universal 320R centrifuge (Auro-Science, Budapest, Hungary) at 10 °C. Plasma was separated and frozen at −70 °C until analysis was done within 2 weeks.
compound,measurement,setting,value
"Nc1ncnc2c1c(-c1ccc(Oc3ccccc3)cc1)nn2[C@@H]1CCCN(C(=O)C(O)CO)C1 (stereo partly drawn) [Dihydrodiol Ibrutinib, 1-[(3R)-3-[4-amino-3-(4-phenoxyphenyl)pyrazolo[3,4-d]pyrimidin-1-yl]piperidin-1-yl]-2,3-dihydroxypropan-1-one]",concentration at 2 h,[1],185 nM
same,concentration at 4 h,[1],143 nM
same,concentration at 23 h,[1],41.3 nM
same,concentration at 24 h,[1],34.6 nM
same,concentration at 0.5 h,"human, oral, 420 mg, Conc., subj=2 (420 mg IBR per day), 0.5 h postdose",71.5 nM
same,concentration at 1 h,"human, oral, 420 mg, Conc., subj=2 (420 mg IBR per day), 1 h postdose",254 nM
same,concentration at 2 h,"human, oral, 420 mg, Conc., subj=2 (420 mg IBR per day)",227 nM
same,k el,"human, oral, 420 mg, LAMZ Lambda z, subj=1 (420 mg IBR per day)",1.9e-05 s⁻¹
same,k el,"human, oral, 420 mg, LAMZ Lambda z, subj=2 (420 mg IBR per day)",3.6e-05 s⁻¹
same,half-life,"human, oral, 420 mg, LAMZHL Half-Life Lambda z, subj=1 (420 mg IBR per day)",10.1 h
same,half-life,"human, oral, 420 mg, LAMZHL Half-Life Lambda z, subj=2 (420 mg IBR per day)",5.35 h
same,MRT last,"human, oral, 420 mg, MRT0–24, Patient 1, 420 mg IBR per day",7.07 h
same,MRT last,"human, oral, 420 mg, MRT0–24, Patient 2, 420 mg IBR per day",4.6 h
same,MRT,"human, oral, 420 mg, MRTEVIFO MRT Extravasc Infinity Obs, subj=1 (420 mg IBR per day)",12.7 h
same,MRT,"human, oral, 420 mg, MRTEVIFO MRT Extravasc Infinity Obs, subj=2 (420 mg IBR per day)",5.65 h
same,MRT,"human, oral, 420 mg, MRTEVIFP MRT Extravasc Infinity Pred, subj=1 (420 mg IBR per day)",12.9 h
same,MRT,"human, oral, 420 mg, MRTEVIFP MRT Extravasc Infinity Pred, subj=2 (420 mg IBR per day)",5.63 h
same,MRT,"human, oral, 420 mg, MRTEVLST MRT Extravasc to Last Nonzero Conc, subj=1 (420 mg IBR per day)",7.07 h
same,MRT,"human, oral, 420 mg, MRTEVLST MRT Extravasc to Last Nonzero Conc, subj=2 (420 mg IBR per day)",4.6 h
same,Cmax,[2],185 nM
same,Cmax,[3],254 nM
same,k el,"human, oral, 420 mg, ke, Patient 1, 420 mg IBR per day",1.92e-05 s⁻¹
same,k el,"human, oral, 420 mg, ke, Patient 2, 420 mg IBR per day",3.61e-05 s⁻¹
same,half-life,"human, oral, 420 mg, t1/2, Patient 1, 420 mg IBR per day",10.1 h
same,half-life,"human, oral, 420 mg, t1/2, Patient 2, 420 mg IBR per day",5.35 h
same,Tmax,[2],2 h
same,Tmax,[3],1 h
same,concentration at 4 h,[4],172 nM
same,concentration at 23 h,[4],14.6 nM
same,concentration at 24 h,[4],13.2 nM
same,AUCPEO AUC %Extrapolation Obs,subj=1 (420 mg IBR per day),17.7444%
same,AUCPEP AUC %Extrapolation Pred,subj=1 (420 mg IBR per day),18.5268%
same,AUMCIFO AUMC Infinity Obs,subj=1 (420 mg IBR per day),36155.1204 h2*nmol/L
same,AUMCIFP AUMC Infinity Pred,subj=1 (420 mg IBR per day),37213.6967 h2*nmol/L
same,AUMCLST AUMC to Last Nonzero Conc,subj=1 (420 mg IBR per day),16593.9650 h2*nmol/L
same,AUMCPEO AUMC %Extrapolation Obs,subj=1 (420 mg IBR per day),54.1034%
same,AUMCPEP AUMC % Extrapolation Pred,subj=1 (420 mg IBR per day),55.4090%
same,TMAX Time of CMAX,subj=1 (420 mg IBR per day),2.0000 h
same,AUCPEO AUC %Extrapolation Obs,subj=2 (420 mg IBR per day),3.8711%
same,AUCPEP AUC %Extrapolation Pred,subj=2 (420 mg IBR per day),3.8177%
same,AUMCIFO AUMC Infinity Obs,subj=2 (420 mg IBR per day),14854.1469 h2*nmol/L
same,AUMCIFP AUMC Infinity Pred,subj=2 (420 mg IBR per day),14807.8422 h2*nmol/L
same,AUMCLST AUMC to Last Nonzero Conc,subj=2 (420 mg IBR per day),11625.7539 h2*nmol/L
same,AUMCPEO AUMC %Extrapolation Obs,subj=2 (420 mg IBR per day),21.7340%
same,AUMCPEP AUMC % Extrapolation Pred,subj=2 (420 mg IBR per day),21.4892%
same,TMAX Time of CMAX,subj=2 (420 mg IBR per day),1.0000 h
same,AUCPEO AUC %Extrapolation Obs,subj=3 (280 mg IBR per day),4.3920%
same,AUCPEP AUC %Extrapolation Pred,subj=3 (280 mg IBR per day),4.2856%
same,AUMCIFO AUMC Infinity Obs,subj=3 (280 mg IBR per day),10834.3795 h2*nmol/L
same,AUMCIFP AUMC Infinity Pred,subj=3 (280 mg IBR per day),10766.9678 h2*nmol/L
same,AUMCLST AUMC to Last Nonzero Conc,subj=3 (280 mg IBR per day),8171.9228 h2*nmol/L
same,AUMCPEO AUMC %Extrapolation Obs,subj=3 (280 mg IBR per day),24.5741%
same,AUMCPEP AUMC % Extrapolation Pred,subj=3 (280 mg IBR per day),24.1019%
same,TMAX Time of CMAX,subj=3 (280 mg IBR per day),2.0000 h
same,time after drug intake at which maximum concentrations were attained,three chronic lymphocyte leukemia patients,≤ 2 h
